Assay results as given in patent US10294202B2, “Pyrrolidinones as herbicides” (FMC Corporation, priority 2013, dated 2019).

Legend:
[1] = tested on: pigweed; assay: Test A pre-/postemergence herbicide test; assay type: in vivo, Amaranthus retroflexus
How it was run: (§1)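 Seeds in loam–sand blend received preemergence directed soil spray; separately, plants 2–10 cm at one- to two-leaf stage received postemergence spray, both with test chemicals in non-phytotoxic solvent with surfactant. After ~10 days in greenhouse, injury rated visually against untreated controls, 0 (no effect) to 100 (complete control).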

[2] = tested on: wheat; assay: Test A pre-/postemergence herbicide test; assay type: in vivo, Triticum aestivum
How it was run: as §1

[3] = tested on: corn; assay: Test A pre-/postemergence herbicide test; assay type: in vivo, Zea mays
How it was run: as §1

[4] = tested on: sedge, umbrella; assay: Test B flooded paddy test; assay type: in vivo, Cyperus difformis; conditions: Flood, scale of 0 to 100 where 0 is no effect and 100 is complete control
How it was run: (§2)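 In-water application to pots flooded 3 cm deep, plants at 2-leaf stage. Held in greenhouse 13–15 days at constant flood depth. Scored 0–100 by eye against controls.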

[5] = tested on: barnyardgrass; assay: Test A pre-/postemergence herbicide test; assay type: in vivo, Echinochloa crus-galli
How it was run: as §1

[6] = tested on: ducksalad; assay: Test B flooded paddy test; assay type: in vivo, Heteranthera limosa; conditions: Flood, scale of 0 to 100 where 0 is no effect and 100 is complete control
How it was run: as §2

[7] = tested on: giant foxtail; assay: Test A pre-/postemergence herbicide test; assay type: in vivo, Setaria faberii
How it was run: as §1

[8] = tested on: morningglory; assay: Test A pre-/postemergence herbicide test; assay type: in vivo, Ipomoea spp.
How it was run: as §1

[9] = tested on: velvetleaf; assay: Test A pre-/postemergence herbicide test; assay type: in vivo, Abutilon theophrasti
How it was run: as §1

[10] = tested on: crabgrass, large; assay: Test A pre-/postemergence herbicide test; assay type: in vivo, Digitaria sanguinalis
How it was run: as §1

[11] = tested on: rice; assay: Test B flooded paddy test; assay type: in vivo, Oryza sativa; conditions: Flood, scale of 0 to 100 where 0 is no effect and 100 is complete control
How it was run: as §2

[12] = tested on: barnyardgrass; assay: Test B flooded paddy test; assay type: in vivo, Echinochloa crus-galli; conditions: Flood, scale of 0 to 100 where 0 is no effect and 100 is complete control
How it was run: as §2

[13] = 125 g ai/ha, visual rating, 0 to 100 scale, 0 no effect, 100 complete control, approximately 10 days, preemergence
[14] = Postemergence, 125 g ai/ha, 0 to 100 scale, 0 no effect, 100 complete control
[15] = preemergence, 500 g ai/ha, 0 to 100 scale
[16] = Postemergence, 500 g ai/ha, 0 to 100 scale (0 no effect, 100 complete control)
[17] = preemergence, 500 g ai/ha, 0 to 100 scale (0 no effect, 100 complete control)
[18] = Postemergence, 125 g ai/ha, 0 to 100 scale, 0 is no effect, 100 is complete control
[19] = preemergence, 500 g ai/ha, 0 to 100 scale, 0 is no effect and 100 is complete control
[20] = Preemergence, 125 g ai/ha, visual rating on 0 to 100 scale (0 no effect, 100 complete control)

## O=C1NCC(c2ccc3ccccc3c2)C1C(=O)Nc1cccc(F)c1F (racemic) [Compound 116]
[1]; [13]
  Plant response rating, Pigweed: 0
[1]; [14]
  Plant response rating, Pigweed: 0
[1]; Postemergence, 500 g ai/ha
  Pigweed plant response rating (0 to 100 scale, 0 is no effect, 100 is complete control): 0
[1]; [15]
  Plant response rating, Pigweed: 0
[2]; [13]
  Plant response rating, Wheat: 0
[2]; [14]
  Plant response rating, Wheat: 0
[2]; Postemergence, 500 g ai/ha
  Wheat plant response rating (0 to 100 scale, 0 is no effect, 100 is complete control): 0
[2]; [15]
  Plant response rating, Wheat: 0
[3]; [13]
  Plant response rating, Corn: 0
[3]; [14]
  Plant response rating, Corn: 0
[3]; [16]
  Plant response rating, Corn: 20
[3]; [15]
  Plant response rating, Corn: 0
[4]; 1000 g ai/ha
  Plant response rating, Sedge, Umbrella: 0
[5]; [13]
  Plant response rating, Barnyardgrass: 0
[5]; [16]
  Plant response rating, Barnyardgrass: 40
[5]; [17]
  Plant response rating, Barnyardgrass: 50
[6]; 1000 g ai/ha
  Plant response rating, Ducksalad: 80
[7]; [13]
  Plant response rating, Foxtail, Giant: 0
[7]; [14]
  Plant response rating, Foxtail, Giant: 0
[7]; Postemergence, 500 g ai/ha
  Foxtail, Giant plant response rating (0 to 100 scale, 0 is no effect, 100 is complete control): 20
[7]; [15]
  Plant response rating, Foxtail, Giant: 30
[8]; [13]
  Plant response rating, Morningglory: 0
[8]; [14]
  Plant response rating, Morningglory: 0
[8]; Postemergence, 500 g ai/ha
  Morningglory plant response rating (0 to 100 scale, 0 is no effect, 100 is complete control): 0
[8]; [15]
  Plant response rating, Morningglory: 0
[9]; [13]
  Plant response rating, Velvetleaf: 0
[9]; [14]
  Plant response rating, Velvetleaf: 0
[9]; Postemergence, 500 g ai/ha
  Velvetleaf plant response rating (0 to 100 scale, 0 is no effect, 100 is complete control): 0
[9]; [15]
  Plant response rating, Velvetleaf: 0
[10]; [13]
  Plant response rating, Crabgrass, Large: 70
[10]; [14]
  Plant response rating, Crabgrass, Large: 20
[10]; Postemergence, 500 g ai/ha
  Crabgrass, Large plant response rating (0 to 100 scale, 0 is no effect, 100 is complete control): 30
[10]; [15]
  Plant response rating, Crabgrass, Large: 80
[11]; 1000 g ai/ha
  Plant response rating, Rice: 15
[12]; 1000 g ai/ha
  Plant response rating, Barnyardgrass: 20

## COc1ccc(C2CNC(=O)C2C(=O)Nc2cccc(F)c2F)cc1F (racemic) [Compound 198]
[1]; [13]
  Plant response rating, Pigweed: 0
[1]; [18]
  Plant response rating, Pigweed: 0
[1]; Postemergence, 500 g ai/ha
  Pigweed plant response rating (0 to 100 scale, 0 is no effect, 100 is complete control): 0
[1]; [19]
  Plant response rating, Pigweed: 0
[2]; [13]
  Plant response rating, Wheat: 0
[2]; [18]
  Plant response rating, Wheat: 0
[2]; Postemergence, 500 g ai/ha
  Wheat plant response rating (0 to 100 scale, 0 is no effect, 100 is complete control): 0
[2]; [19]
  Plant response rating, Wheat: 0
[3]; [13]
  Plant response rating, Corn: 0
[3]; [18]
  Plant response rating, Corn: 0
[3]; Postemergence, 500 g ai/ha
  Corn plant response rating (0 to 100 scale, 0 is no effect, 100 is complete control): 0
[3]; [19]
  Plant response rating, Corn: 0
[4]; 250 g ai/ha
  Plant response rating, Sedge, Umbrella: 0
[4]; 1000 g ai/ha
  Plant response rating, Sedge, Umbrella: 0
[5]; [13]
  Plant response rating, Barnyardgrass: 50
[5]; [18]
  Plant response rating, Barnyardgrass: 50
[5]; Postemergence, 500 g ai/ha
  Barnyardgrass plant response rating (0 to 100 scale, 0 is no effect, 100 is complete control): 80
[5]; [19]
  Plant response rating, Barnyardgrass: 90
[6]; 250 g ai/ha
  Plant response rating, Ducksalad: 70
[6]; 1000 g ai/ha
  Plant response rating, Ducksalad: 95
[7]; [13]
  Plant response rating, Foxtail, Giant: 50
[7]; [18]
  Plant response rating, Foxtail, Giant: 10
[7]; Postemergence, 500 g ai/ha
  Foxtail, Giant plant response rating (0 to 100 scale, 0 is no effect, 100 is complete control): 60
[7]; [19]
  Plant response rating, Foxtail, Giant: 80
[8]; [13]
  Plant response rating, Morningglory: 0
[8]; [18]
  Plant response rating, Morningglory: 0
[8]; Postemergence, 500 g ai/ha
  Morningglory plant response rating (0 to 100 scale, 0 is no effect, 100 is complete control): 0
[8]; [19]
  Plant response rating, Morningglory: 0
[9]; [13]
  Plant response rating, Velvetleaf: 0
[9]; [18]
  Plant response rating, Velvetleaf: 0
[9]; Postemergence, 500 g ai/ha
  Velvetleaf plant response rating (0 to 100 scale, 0 is no effect, 100 is complete control): 0
[9]; [19]
  Plant response rating, Velvetleaf: 0
[10]; [13]
  Plant response rating, Crabgrass, Large: 90
[10]; [18]
  Plant response rating, Crabgrass, Large: 50
[10]; Postemergence, 500 g ai/ha
  Crabgrass, Large plant response rating (0 to 100 scale, 0 is no effect, 100 is complete control): 80
[10]; [19]
  Plant response rating, Crabgrass, Large: 100
[11]; 250 g ai/ha
  Plant response rating, Rice: 0
[11]; 1000 g ai/ha
  Plant response rating, Rice: 15
[12]; 250 g ai/ha
  Plant response rating, Barnyardgrass: 0
[12]; 1000 g ai/ha
  Plant response rating, Barnyardgrass: 65

## O=C1NCC(c2ccc3c(c2)OC(F)(F)O3)C1C(=O)Nc1ccccc1F (stereo not drawn) [Compound 63]
[1]; [14]
  Plant response rating, Pigweed: 0
[1]; [16]
  Plant response rating, Pigweed: 0
[1]; [20]
  Pigweed plant response rating: 0
[1]; [15]
  Plant response rating, Pigweed: 0
[2]; [14]
  Plant response rating, Wheat: 0
[2]; [16]
  Plant response rating, Wheat: 30
[2]; [20]
  Wheat plant response rating: 0
[2]; [15]
  Plant response rating, Wheat: 0
[3]; [14]
  Plant response rating, Corn: 0
[3]; [16]
  Plant response rating, Corn: 50
[3]; [20]
  Corn plant response rating: 0
[3]; [15]
  Plant response rating, Corn: 0
[4]; 250 g ai/ha
  Plant response rating, Sedge, Umbrella: 0
[5]; [14]
  Plant response rating, Barnyardgrass: 60
[5]; [16]
  Plant response rating, Barnyardgrass: 80
[5]; [20]
  Barnyardgrass plant response rating: 50
[5]; [17]
  Plant response rating, Barnyardgrass: 80
[6]; 250 g ai/ha
  Plant response rating, Ducksalad: 60
[7]; [14]
  Plant response rating, Foxtail, Giant: 70
[7]; [16]
  Plant response rating, Foxtail, Giant: 90
[7]; [20]
  Foxtail, Giant plant response rating: 70
[7]; [15]
  Plant response rating, Foxtail, Giant: 90
[8]; [14]
  Plant response rating, Morningglory: 0
[8]; [16]
  Plant response rating, Morningglory: 0
[8]; [20]
  Morningglory plant response rating: 0
[8]; [15]
  Plant response rating, Morningglory: 0
[9]; [14]
  Plant response rating, Velvetleaf: 0
[9]; [16]
  Plant response rating, Velvetleaf: 0
[9]; [20]
  Velvetleaf plant response rating: 0
[9]; [15]
  Plant response rating, Velvetleaf: 0
[10]; [14]
  Plant response rating, Crabgrass, Large: 80
[10]; [16]
  Plant response rating, Crabgrass, Large: 90
[10]; [20]
  Crabgrass, Large plant response rating: 90
[10]; [15]
  Plant response rating, Crabgrass, Large: 90
[11]; 250 g ai/ha
  Plant response rating, Rice: 0
[12]; 250 g ai/ha
  Plant response rating, Barnyardgrass: 20
